Source: US7304068B2, “Substituted pyrazolo [1,5-A] pyrimidinyls and pharmaceutical uses therefore” (SmithKline Beecham Corporation, priority 2002, dated 2007)

test system: HSV-1; assay: HSV-1 replication in infected Vero 76 cells, DNA hybridization capture assay; type: cell-based, herpes simplex virus 1; conditions: Human alphaherpesvirus 1; HSV-1 infected Vero 76 cells (MOI=0.001), 40-48 hours incubation, HSV DNA detected by hybridization/chemiluminescence
Description: Vero 76 cells were maintained in MEM with Earle's salts, L-glutamine, 8% FBS (Hyclone, A-1111-L) and 100 units/mL Penicillin-100 μg/mL Streptomycin. For assay conditions, FBS was reduced to 2%. Cells are seeded into 96-well tissue culture plates at a density of 5×10^4 cells/well after being incubated for 45 min at 37° C. in the presence of HSV-1 or HSV-2 (MOI=0.001). Test compounds are added to the wells and the plates are incubated at 37° C. for 40-48 hours. Cell lysates are prepared as follows: media was removed and replaced with 150 μL/well 0.2 N NaOH with 1% igepal CA 630 or NP-40. Plates were incubated up to 14 days at room temperature in a humidified chamber to prevent evaporation.
For the detection probe, a gel-purified, digoxigenin-labeled, 710-bp PCR fragment of the HSV UL-15 sequence was utilized. PCR conditions included 0.5 μM primers, 180 μM dTTP, 20 μM dUTP-digoxigenin (Boehringer Mannheim 1558706), 200 μM each of dATP, dCTP, and dGTP, 1× PCR Buffer II (Perkin Elmer), 2.5 mM MgCl2, 0.025 units/μL of AmpliTaq Gold polymerase (Perkin Elmer), and 5 ng of gel-purified HSV DNA per 100 μL Extension conditions were 10 min at 95° C., followed by 30 cycles of 95° C. for 1 min, 55° C. for 30 sec, and 72° C. for 2 min. The amplification was completed with a 10-min incubation at 72° C. Primers were selected to amplify a 728 bp probe spanning a section of the HSV1 UL15 open reading frame (nucleotides 249-977). Single-stranded transcripts were purified with Promega M13 Wizard kits. The final product was mixed 1:1 with a mixture of 6 M GuSCN, 100 mM EDTA and 200 μg/mL herring sperm DNA and stored at 4° C.
The capture DNA plasmid (HSV UL13 region in pUC) was linearized by cutting with Xba I, denatured for 15 min at 95° C. and diluted immediately into Reacti-Bind DNA Coating Solution (Pierce, 17250, diluted 1:1 with TE buffer, pH 8) at 1 ng/μL. 75 μL/well were added to Corning (#3922 or 9690) white 96-well plates and incubated at room temperature for at least 4 hrs before washing twice with 300 μL/well 0.2×SSC/0.05% Tween-20 (SSC/T buffer). The plates were then incubated overnight at room temperature with 150 μL/well 0.2 N NaOH, 1% IGEPAL and 10 μg/mL herring sperm DNA.
Twenty-seven (27) μL of cell lysate was combined with 45 μL of hybridization solution (final concentration: 3M GuSCN, 50 mM EDTA, 100 μg/ml salmon sperm DNA, 5× Denhardt's solution, 0.25× APE, and 5 ng of the digoxigenin-labeled detection probe). APE is 1.5 M NH4-acetate, 0.15 M NH4H2 phosphate, and 5 mM EDTA adjusted to pH 6.0. Mineral oil (50 μL) was added to prevent evaporation. The hybridization plates were incubated at 95° C. for 10 minutes to denature the DNA, then incubated at 42° C. overnight. The wells were washed 6× with 300 μL/well SSC/T buffer then incubated with 75 μL/well anti-digoxigenin-HRP-conjugated antibody (Boehringer Mannheim 1207733, 1:5000 in TE) for 30 min at room temperature. The wells were washed 6× with 300 μL/well with PBS/0.05% Tween-20 before 75 μL/well SuperSignal LBA substrate (Pierce) was added. The plates were incubated at room temperature for 30 minutes and chemiluminescence was measured in a Wallac Victor reader.
The following results were obtained for HSV-1.

| IC50 [nM] | Structure (SMILES) |
| --- | --- |
| 28000 | Fc1cc(-c2c(-c3ccccc3)nn3c(N4CCCC4)ccnc23)ccn1 [Example 1, 3-(2-Fluoropyridin-4-yl)-2-phenyl-7-pyrrolidin-1-ylpyrazolo[1,5-α]pyrimidine] |
| 1200 | Fc1ccc(-c2nn3c(NC4CCCC4)ccnc3c2-c2ccnc(NC3CCCC3)c2)cc1 [Example 5, N-Cyclopentyl-3-[2-(cyclopentylamino)-4-pyridinyl]-2-(4-fluorophenyl)pyrazolo[1,5-α]pyrimidin-7-amine] |
| 600 | COc1ccc(-c2nn3c(NC4CCCC4)ccnc3c2-c2ccnc(NC3CCCC3)c2)cc1 [Example 4, N-Cyclopentyl-3-[2-(cyclopentylamino)-4-pyridinyl]-2-(4-methoxyphenyl)pyrazolo[1,5-α]pyrimidin-7-amine] |
| 800 | c1ccc(-c2nn3c(N4CCCC4)ccnc3c2-c2ccnc(NC3CCCC3)c2)cc1 [Example 2, N-Cyclopentyl-4(2-phenyl-7-pyrrolidin-1-ylpyrazolo[1,5-α]pyrimidin-3-yl)pyridin-2-amine] |
| 2400 | COc1ccc(-c2nn3c(NC4CCCC4)ccnc3c2-c2ccnc(NC3CCCC3)n2)cc1 [Example 6, N-Cyclopentyl-3-[2-(cyclopentylamino)pyrimidin-4-yl]-2-(4-methoxyphenyl)pyrazolo[1,5-α]pyrimidin-7-amine] |
| 300 | c1ccc(-c2nn3c(NC4CCCC4)ccnc3c2-c2ccnc(NC3CCCC3)c2)cc1 [Example 3, N-Cyclopentyl-3-[2-(cyclopentylamino)pyridin-4-yl]-2-phenylpyrazolo[1,5-α]pyrimidin-7-amine] |
